Assays:
DENV3 strain MY05-34640 = conditions: A549; 48 hr; read-out: DENV3 HCI, EC50 (converted); cited from earlier work
DENV2-NGC replicon E802D = type: cell-based; conditions: electroporated BHK-21; 2 days
[1] = biological target: T1, FL NS5 from BHK-21 DENV2-NGC replicon cell lysate (Dengue virus type 2, UniProt P14340); assay: Cellular thermal shift assay with replicon cell lysate; type: binding; conditions: +50 μM compound; DMSO control 42.5
T1 construct: FL NS5 from DENV-replicon lysates; expressed in transfected cells; host or cells: BHK-21 cells carrying a DENV2 (New Guinea C) sub-genomic replicon
Description: 1 Fig. 4.Ph ylo genetic tr ee repres enting relatedn ess of N-pocket amino acid residues from
2 different members of the Flavivirus famil y, derived from Clustal Omega program [ 8] .
(§1) 6 Fi g .5. Ef fects of N -pocket compounds on DENV pol ymerase thermo-stability. Melting
(§2) 7 temperatur e (Tm) w as ass essed b y thermo-d enatur ation in presence of the S YPRO Oran ge
(§3) 8 dye as described in Materials and Methods. (A-F) Representative meltin g curves of DEN V4
10 inhibitors or 5 % DMSO control. (G) Cellular thermal shifts assays [ 9] wer e perfo rmed with
Bri efl y, l ysates w er e
12 incubated with compounds or 5 % DMSO for 1 hr at 4 °C, followed b y heating at 30- 70 °C.
13 Samples were spun and the supernat ants loaded onto 12 % SDS -PAGE gel s , followed b y gel
14 electrophoresis and west ern blotting with anti- DE NV2 NS5 antibody (GeneTex, USA). Table
(§4) 16 controls treated with DMSO.
(1 picture or pasted object on this page, not shown here)

in vitro = type: cell-based; conditions: human; 4–5 days; read-out: CC50, HepG2
[2] = tested on: DENV2-NGC Ren-LUC Replicon in BHK21; assay: Stable BHK21 DENV2-NGC renilla luciferase replicon assay; type: cell-based; conditions: Dengue virus, DENV2, BHK-21; 48 hr
DENV2 FL NS5 L511V = biological target: T2, DENV2 FL NS5 L511V (Dengue virus type 2, UniProt P14340, L3003V); type: binding; conditions: 50 µM compound; for Protein melting temperature, Tm, DENV2 FL NS5 L511V: DMSO 35.5
T2 construct: Recombinant DENV2 (A, C) and DENV4 (B, D) FL NS5 proteins bearing single or double amino acid changes; made in house

DENV2-NGC virus L512V = type: cell-based; conditions: A549, MOI = 0.2; 48 hr; plaque assay
DENV4 FL NS5 = assay: Thermo-denaturation assay, recombinant FL NS5; type: binding; conditions: for Tm change compared to DMSO control, DENV4 FL NS5 WT: 50 µM compound (Fig 7 in S1 Text); for Protein melting temperature, Tm, DENV4 FL NS5 WT: 50 µM compound, DMSO 37.5 (Fig 7 in S1 Text); for Protein melting temperature Tm with compound, FL NS5: +50 μM compound, DMSO control 42.5
Protocol: Site-directed alanine mutations of DENV4 FL NS5 cDNA were performed using pET28-D4-MY01-22713 NS5FL [23] as a template, according to the manufacturer’s protocol (Stratagene, USA). Protein expressions of DENV1-4 FL NS5 and their stability analyses by thermo-fluorescence were performed as described previously. DENV de novo initiation and elongation FAPA assays were earlier described. […]
as §1, §2, §3
10 inhibitors or 5 % DMSO control. […]
as §4

DENV3 FL NS5 = biological target: T3, DENV3 FL NS5 (Dengue virus type 3, UniProt Q6YMS4); assay: DENV3 FL NS5 de novo initiation FAPA assay; type: biochemical; conditions: one experiment; read-out: DENV FL NS5 de novo initiation FAPA, IC50, DENV3
T3 construct: 100 nM DENV FL NS5 protein was added; made in house
Protocol: DENV1-4 FL NS5 dnI assays were performed as described previously. Briefly, compounds from 0–20 or -100 μM concentrations are two-fold serially diluted into 384-well black opaque plates (Corning Costar), after which 100 nM DENV FL NS5 protein was added and the plates incubated at RT for 20 min. RNA and ATTO-CTP, ATP, GTP and UTP were then added and the plates incubated for another 120 min. Reactions were stopped with buffer containing 25 nM CIP, re- incubated at RT for 60 min and read on a Tecan Safire II microplate reader. For order-of-addition experiments, DENV4 FL NS5 was incubated for one hour at RT with RNA, ATP, and GTP or RNA, ATP, GTP and ATTO-CTP, followed by exposure to serially diluted compounds for 20 min at RT. The missing components (ATTO-CTP and UTP or UTP alone) were added and the reactions continued for 120 min after which STOP buffer was added as before. All datapoints were performed in duplicate wells. Each compound was tested at least twice.
2 Co mpound testing with DENV dn I FAPA assays. Final dn I assa y reaction mixtures
3 contained 100 nM DENV 5 ´UTR-L-3´UTR IVT RNA, 20 µ M ATP, 20 µM GTP, 20 µM
4 UTP, 5 µM ATTO -CTP, and 100 nM of DENV FL NS5 protein in 15 µl in assa y buffer
5 comprising 50 mM Tris/ HCl, pH 7.5, 10 mM KCl, 1 mM MgCl2, 0.3 mM MnCl2 (DENV2
6 and 4) or 1 mM MnCl 2 (DENV1 and 3), 0.001% Triton- X-100 and 10 µ M cystein e [ 1] . To
7 perform dose-respons e inhibition measurements, compounds from 0- 20 or - 100 µM
8 concentr ations are two -fold seriall y diluted into 384-well black opaqu e plat es (Corning
9 Costar), after which 100 nM DENV FL NS5 protein was added into resp ect ive wells. The
10 plates wer e sealed, b riefl y shak en and centrif uged at 1500 rpm for 30 sec and incubated at RT
11 for 15 min. Thereafter,RNA and ATTO -CTP, ATP, GTP and UTP were added to the wells to
12 start the reactions. The pl ates wer e re-seal ed, shaken and centrifuged as before, followed b y
13 incubation RT for 120 min. Reactions were stopped by addition of 10 µl of 2.5X STOP
14 buffer (200 mM NaCl, 25 mM MgCl2, 1.5M DEA, pH 10; Promega) with 25 nM calf
15 intestinal phosphatase (CIP), re- incubation at RT for 60 min and read on a Tecan Safire II
16 microplate reader. For o r der-of-addition experiments, DENV4 FL NS5 was incubated for one
17 hour at RT with RNA, ATP, and GTP or RNA, ATP, GTP and ATTO-CTP, followed by
18 exposure to seriall y dilut ed compounds for 20 mi n at RT. The missing components (ATTO-
19 CTP and UTP or UTP alone) were added and the reactions continued for 120 min after which
20 STOP buffer was added as before. All datapoints were performed in duplicate wells. Each
21 compound was tested at l east twice.
23 Compound testing in DENV1-4 infected cells by high content imaging. Approximatel y 7
24 × 10^3 A549 cells per well were s eeded into 384-well plates in Ham’s F-12K medium

| Compound | EC50 (DENV3 strain MY05-34640) [µM] | EC50 (DENV2-NGC replicon E802D) [µM] | Protein melting temperature Tm with compound, FL NS5 from BHK-21 DENV2-NGC replicon cell lysate [1] [°C] | CC50 (in vitro) [µM] | EC50 [2] [µM] | Tm change compared to DMSO control, DENV2 FL NS5 L511V (DENV2 FL NS5 L511V) [°C] | Protein melting temperature, Tm, DENV2 FL NS5 L511V (DENV2 FL NS5 L511V) [°C] | EC50 (DENV2-NGC virus L512V) [µM] | Tm change compared to DMSO control, DENV4 FL NS5 WT (DENV4 FL NS5) [°C] | Protein melting temperature, Tm, DENV4 FL NS5 WT (DENV4 FL NS5) [°C] | Protein melting temperature Tm with compound, FL NS5 (DENV4 FL NS5) [°C] | IC50 (DENV3 FL NS5) [µM] |
| --- | --- | --- | --- | --- | --- | --- | --- | --- | --- | --- | --- | --- |
| COc1cccc(S(=O)(=O)NC(=O)c2cc(-c3ccc(C#CCO)s3)c(OC)cc2OC)c1 [Compound 27] | 1.8 ± 0.5 | 12.8 | 47.5 | > 50 | 3 | 0 | 35.5 | 2.2 | 1 | 38.5 | 46.5 |  |
| COc1cccc(S(=O)(=O)NC(=O)c2cc(-c3ccc(C#CCO)s3)c(OC)cc2C)c1 [Compound 26i] |  |  |  |  |  |  |  |  |  |  |  | 0.054 |
| COc1cc(OC)c(-c2ccc(C#CCO)s2)cc1C(=O)NS(=O)(=O)c1cccc2cccnc12 [Compound 29] | 3.8 | 21.4 | 50 | > 50 | 4.6 | 1.0 | 36.5 | 6 | 3 | 40.5 | 51.5 | 0.016 |

— paper PMC4976923, “Potent Allosteric Dengue Virus NS5 Polymerase Inhibitors: Mechanism of Action and Resistance Profiling” (PLoS Pathogens, 2016)
